Among the data in US8088791B2, “Antibacterial agents” (Biots Scientific Management Pty Ltd, priority 2006, dated 2012) are Percent survival and MIC values, retold here.

One assay deals with Staphylococcus aureus. In words: mouse Staphylococcus aureus septicaemia model of infection. In kind it is in vivo. The following applies: survival at day 7 of infected mice; single intraperitoneal dose of 100 mg/kg at 1 hour after intraperitoneal inoculation with a lethal dose of Staphylococcus aureus. Here is the method: Some of the Examples were also tested for activity in a mouse Staphylococcus aureus septicaemia model of infection.

The test system of assay [1] is various bacterial species. Put plainly: Minimum Inhibitory Concentration (MIC) testing, broth microdilution, other bacterial species. In kind it is cell-based. Put shortly:
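Broth microdilution per NCCLS M7-A5 in rich broth (e.g. Mueller Hinton), inoculum from OD 0.09 suspension diluted 1:100 in 2× broth. Incubation 16-20 hours at 37° C; turbidity scored visually and spectrophotometrically. MIC is the lowest concentration inhibiting visible growth, binned A ≦8, B 16-64, C >64 micrograms/ml.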

Assay [2] concerns Staphylococcus aureus ATCC29213. In words: Minimum Inhibitory Concentration (MIC) testing, broth microdilution, Staphylococcus aureus. The format is cell-based. The following applies: Staphylococcus aureus ATCC29213; read-out: Staphylococcus aureus MICs Activity. The gist of the method: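 Broth microdilution per NCCLS M7-A5 in Mueller Hinton broth, with compound in 1.6% DMSO and inoculum at OD 0.09 diluted 1:100. Plates incubated 16–20 h at 37°C. MIC is the lowest concentration with no visible growth; scored A ≤8, B 16–64, C >64 μg/ml.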

Another assay concerns Bacillus subtilis 168CA. Put plainly: Minimum Inhibitory Concentration (MIC) testing, broth microdilution, Bacillus subtilis. In kind it is cell-based. The following applies: Bacillus subtilis 168CA; read-out: Bacillus subtilis MICs Activity. The gist of the method: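 MICs were scored A (≦8 μg/ml), B (16–64 μg/ml) or C (>64 μg/ml), read as the lowest concentration preventing visible growth by eye and spectrophotometry. Plates incubated overnight (16–20 h) at 37 °C, inoculum OD 0.09 diluted 1:100 in 2× broth, per NCCLS guidelines.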

[3] abbreviates: Bacillus cereus, ATCC14579, read-out: MIC Activity Bacillus cereus ATCC 14579.
[4] abbreviates: Staphylococcus epidermidis, ATCC12228, read-out: MIC Activity Staphylococcus epidermidis ATCC 12228.
The mark [5] stands for this setting: Staphylococcus haemolyticus, ATCC29970, read-out: MIC Activity Staphylococcus haemolyticus ATCC 29970.
Where [6] appears, read: Staphylococcus saprophyticus, ATCC15305, read-out: MIC Activity Staphylococcus saprophyticus ATCC 15305.

Read-outs that look alike come from different tables or passages of the source.

Consider `NC(=O)c1c(F)ccc(OCc2nc(-c3ccc(Cl)cc3)no2)c1F` [Example 246, 3-[3-(4-Chlorophenyl)-1,2,4-oxadiazol-5-yl]methoxy-2,6-difluorobenzenecarboxamide], for which the Percent survival with Staphylococcus aureus is 100%. Also, the MIC (in assay [1] (setting [3]); in assay [1] (setting [4]); in assay [1] (setting [5]); in assay [1] (setting [6]); in assay [2]; with Bacillus subtilis 168CA) was less than 8 µg/mL in each case.
`Cc1ccc(-c2noc(COc3ccc(F)c(C(N)=O)c3F)n2)cc1` [Example 247, 2,6-Difluoro-3-[3-(4-methylphenyl)-1,2,4-oxadiazol-5-yl]methoxybenzenecarboxamide] returned a Percent survival in the assay with Staphylococcus aureus of 100%. Also, the MIC (in assay [2]; in the assay on Bacillus subtilis 168CA) was less than 8 µg/mL each time.
As to `NC(=O)c1c(F)ccc(OCc2nc(-c3ccc(Cl)cc3)cs2)c1F` [Example 106, 3-[4-(4-Chloro-phenyl)-thiazol-2-ylmethoxy]2,6-difluoro-benzamide], in the assay with Staphylococcus aureus, the Percent survival turned out to be 100%. Moreover, the MIC (in assay [1] (setting [3]); in assay [1] (setting [4]); in assay [1] (setting [5]); in assay [1] (setting [6]); in assay [2]; with Bacillus subtilis 168CA) was less than 8 µg/mL throughout.
`COc1ccc(-c2noc(COc3ccc(F)c(C(N)=O)c3F)n2)cc1` [Example 241, 2,6-Difluoro-3-[3-(4-methoxyphenyl)-1,2,4-oxadiazol-5-yl]methoxybenzenecarboxamide] had a Percent survival in the assay on Staphylococcus aureus of 100%. Also, the MIC (in assay [2]; with Bacillus subtilis 168CA) was less than 8 µg/mL each time.
